Measurements as given in patent US20230203023A1, “SALT AND CRYSTAL FORMS OF GLP-1R AGONISTS AND USES THEREOF” (QILU REGOR THERAPEUTICS INC., priority 2020, published 2023).

What was measured:
[1] = Solid stability evaluation (I/II), XRPD and HPLC; type: physicochemical; conditions: for Observation / Purity (area %): listed as Freeform
Method: To evaluate the physical and chemical stability of 1:1 Compound I Tris Salt (Form A) and amorphous free form, samples were stored under the conditions of 60° C. for 1 day and 25° C./60% RH or 40° C./75% RH for 1 week, respectively.
To evaluate the physical and chemical stability of 1:1 Compound II Citrate Salt (Form A), 1:1 Compound II Tris Salt (Form B) and freeform, samples were stored under the conditions of 60° C. for 1 day and 25° C./60% RH or 40° C./75% RH for 1 week, respectively.

[2] = Kinetic solubility test in water and bio-relevant media (SGF, FaSSIF, FeSSIF); type: physicochemical; conditions: for S: solubility: 37° C.; for Purity (%), area percentage of API: for reference only (suspensions); for FC: form change: residual solids by XRPD; for pH: supernatant
Method: (§1) Weigh 100 mg of sodium chloride and 50 mg of Triton X-100 into a 50-mL volumetric flask. Add appropriate volume of purified water and sonicate until all solids are completely dissolved. Add about 68 μL of 12 M HCl and sufficient purified water closely to the target volume and adjust to pH 1.8. Dilute to volume with purified water, mix well and check the pH with a pH meter.
as §1, with “170” for “100”, “phosphate monobasic, 21” for “chloride and 50”, “sodium hydroxide and 310 mg of sodium chloride, 110 mg of SIF powder” for “Triton X-100”, “Add” for “Add about 68 μL of 12 M HCl and”, “6.5.” for “1.8.”
Weigh 0.41 mL of glacial acetic acid, 202 mg of sodium hydroxide and 594 mg of sodium chloride, 560 mg of SIF powder into a 50-mL volumetric flask. Add appropriate volume of purified water to dissolve the solids. Then add sufficient purified water closely to the target volume and adjust to pH 5.0. Dilute to volume with purified water, mix well and check the pH with a pH meter.
Kinetic solubility was evaluated in water and three bio-relevant media (SGF, FaSSIF and FeSSIF) for 1/4/24 hours. 3-4 mg of solids were suspended in 3 mL each medium (solid loading: 1 mg/mL, calculated using freeform) to get a suspension, followed by rolling (25 rpm) at 37° C. for 1/4/24 hours. At each time point, ˜1.0 mL of suspension was sampled out for centrifugation (12000 rpm, 2 min) and filtration through 0.45 μm PTFE membrane to obtain supernatant for HPLC and pH tests, the residual solids were analyzed by XRPD.
Kinetic solubility was evaluated for 1:1 Compound II Citrate Salt (Form A), 1:1 Compound II Tris Salt (Form B), and freeform of Compound II in water and three bio-relevant media (SGF, FaSSIF and FeSSIF) for 1/4/24 hours. 3-4 mg of solids were suspended in 3 mL each medium (solid loading:
1 mg/mL, calculated using freeform) to get a suspension, followed by rolling (25 rpm) at 37° C. for 1/4/24 hours. At each time point, ˜1.0 mL of suspension was sampled out for centrifugation (12000 rpm, 2 min) and filtration through 0.45 μm PTFE membrane to obtain supernatant for HPLC and pH tests, the residual solids were analyzed by XRPD. […] The purity results were for reference only since the samples were all suspensions.

[3] = FaSSIF, 1 hour, listed as Freeform
[4] = FaSSIF, 4 hours, listed as Freeform
[5] = FaSSIF, 24 hours, listed as Freeform
[6] = FeSSIF, 1 hour, listed as Freeform
[7] = FeSSIF, 4 hours, listed as Freeform
[8] = FeSSIF, 24 hours, listed as Freeform
[9] = H2O, 1 hour, listed as Freeform
[10] = H2O, 4 hours, listed as Freeform
[11] = H2O, 24 hours, listed as Freeform
[12] = SGF, 1 hour, listed as Freeform
[13] = SGF, 4 hours, listed as Freeform
[14] = SGF, 24 hours, listed as Freeform

## N#Cc1ccc(COc2cccc(C3=CCN(Cc4nc5ccc(C(=O)O)cc5n4C[C@@H]4CCO4)CC3)n2)c(F)c1 [Compound II, (S)-2-((6-((4-cyano-2-fluorobenzyl)oxy)-3′,6′-dihydro-[2,4′-bipyridin]-1′(2′H)-yl)methyl)-1-(oxetan-2-ylmethyl)-1H-benzo[d]imidazole-6-carboxylic acid]
[1]; 25° C./60% RH (open), 1 week
  Form change: No
  Observation: Yellow
  Purity (area %): 94.58 area %
[1]; 40° C./75% RH (open), 1 week
  Form change: No
  Observation: Yellow
  Purity (area %): 92.86 area %
[1]; 60° C. (capped), 1 day
  Form change: No
  Observation: Yellow
  Purity (area %): 88.94 area %
[1]; Initial
  Form change: No
  Observation: Yellow
  Purity (area %): 95.27 area %
[2]; [3]
  S: solubility: 20 µg/mL
  Purity (%), area percentage of API: 85.92%
  pH: 6.5
[2]; [4]
  S: solubility: 20 µg/mL
  Purity (%), area percentage of API: 72.84%
  FC: form change: No
  pH: 6.5
[2]; [5]
  S: solubility: 20 µg/mL
  Purity (%), area percentage of API: 66.76%
  pH: 6.4
[2]; [6]
  S: solubility: 30 µg/mL
  Purity (%), area percentage of API: 71.16%
  pH: 5.0
[2]; [7]
  S: solubility: 20 µg/mL
  Purity (%), area percentage of API: 47.29%
  pH: 5.1
[2]; [8]
  S: solubility: 40 µg/mL
  Purity (%), area percentage of API: 37.65%
  FC: form change: No
  pH: 5.0
[2]; [9]
  S: solubility: 30 µg/mL
  Purity (%), area percentage of API: 93.84%
  pH: 6.6
[2]; [10]
  S: solubility: 30 µg/mL
  Purity (%), area percentage of API: 86.44%
  FC: form change: No
  pH: 7.0
[2]; [11]
  S: solubility: 40 µg/mL
  Purity (%), area percentage of API: 89.76%
  FC: form change: No
  pH: 7.3
[2]; [12]
  S: solubility: 200 µg/mL
  Purity (%), area percentage of API: 94.17%
  FC: form change: No
[2]; [13]
  S: solubility: 200 µg/mL
  Purity (%), area percentage of API: 81.32%
  pH: 1.9
[2]; [14]
  S: solubility: 100 µg/mL
  Purity (%), area percentage of API: 76.04%
  pH: 1.8
[2]; FaSSIF, 1 hour
  FC: form change: No
[2]; FaSSIF, 24 hours
  FC: form change: Yes
[2]; FeSSIF, 1 hour
  FC: form change: No
[2]; FeSSIF, 4 hours
  FC: form change: Yes
[2]; H2O, 1 hour
  FC: form change: No
[2]; SGF, 4 hours
  FC: form change: Yes
[2]; SGF, 24 hours
  FC: form change: Yes
[2]; SGF, 1 hour
  pH: 1.9
